Reference: US8822451B2, “Modulators of ATP-binding cassette transporters” (Vertex Pharmaceuticals Incorporated, priority 2005, dated 2014)

Biological target: T1, […]F508-CFTR (Homo sapiens, UniProt P13569, DEL508-508)
T1 construct: expressed in transfected cells
Test: Assay results of Table 3: ΔF508-CFTR modulation, membrane potential optical assay (assay format not stated)
Type: cell-based
Conditions: NIH3T3 mouse fibroblasts stably expressing […]F508-CFTR (optical assays); for Efficacy: efficacy range; for EC50: potency range
In short: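 Two VIPR II FRET voltage-dye formats in ΔF508-CFTR NIH3T3 cells yield EC50 and efficacy. Potentiator mode: 27° C.-corrected cells get compound in Cl⁻-free medium, forskolin 2-10 μM after 22 s (final Cl⁻ 28 mM). Corrector mode: compound 16 h at 37° C., activation with forskolin 10 μM plus genistein 20 μM.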

T1 sequence (P13569 with tags, fused parts or gaps DEL508-508): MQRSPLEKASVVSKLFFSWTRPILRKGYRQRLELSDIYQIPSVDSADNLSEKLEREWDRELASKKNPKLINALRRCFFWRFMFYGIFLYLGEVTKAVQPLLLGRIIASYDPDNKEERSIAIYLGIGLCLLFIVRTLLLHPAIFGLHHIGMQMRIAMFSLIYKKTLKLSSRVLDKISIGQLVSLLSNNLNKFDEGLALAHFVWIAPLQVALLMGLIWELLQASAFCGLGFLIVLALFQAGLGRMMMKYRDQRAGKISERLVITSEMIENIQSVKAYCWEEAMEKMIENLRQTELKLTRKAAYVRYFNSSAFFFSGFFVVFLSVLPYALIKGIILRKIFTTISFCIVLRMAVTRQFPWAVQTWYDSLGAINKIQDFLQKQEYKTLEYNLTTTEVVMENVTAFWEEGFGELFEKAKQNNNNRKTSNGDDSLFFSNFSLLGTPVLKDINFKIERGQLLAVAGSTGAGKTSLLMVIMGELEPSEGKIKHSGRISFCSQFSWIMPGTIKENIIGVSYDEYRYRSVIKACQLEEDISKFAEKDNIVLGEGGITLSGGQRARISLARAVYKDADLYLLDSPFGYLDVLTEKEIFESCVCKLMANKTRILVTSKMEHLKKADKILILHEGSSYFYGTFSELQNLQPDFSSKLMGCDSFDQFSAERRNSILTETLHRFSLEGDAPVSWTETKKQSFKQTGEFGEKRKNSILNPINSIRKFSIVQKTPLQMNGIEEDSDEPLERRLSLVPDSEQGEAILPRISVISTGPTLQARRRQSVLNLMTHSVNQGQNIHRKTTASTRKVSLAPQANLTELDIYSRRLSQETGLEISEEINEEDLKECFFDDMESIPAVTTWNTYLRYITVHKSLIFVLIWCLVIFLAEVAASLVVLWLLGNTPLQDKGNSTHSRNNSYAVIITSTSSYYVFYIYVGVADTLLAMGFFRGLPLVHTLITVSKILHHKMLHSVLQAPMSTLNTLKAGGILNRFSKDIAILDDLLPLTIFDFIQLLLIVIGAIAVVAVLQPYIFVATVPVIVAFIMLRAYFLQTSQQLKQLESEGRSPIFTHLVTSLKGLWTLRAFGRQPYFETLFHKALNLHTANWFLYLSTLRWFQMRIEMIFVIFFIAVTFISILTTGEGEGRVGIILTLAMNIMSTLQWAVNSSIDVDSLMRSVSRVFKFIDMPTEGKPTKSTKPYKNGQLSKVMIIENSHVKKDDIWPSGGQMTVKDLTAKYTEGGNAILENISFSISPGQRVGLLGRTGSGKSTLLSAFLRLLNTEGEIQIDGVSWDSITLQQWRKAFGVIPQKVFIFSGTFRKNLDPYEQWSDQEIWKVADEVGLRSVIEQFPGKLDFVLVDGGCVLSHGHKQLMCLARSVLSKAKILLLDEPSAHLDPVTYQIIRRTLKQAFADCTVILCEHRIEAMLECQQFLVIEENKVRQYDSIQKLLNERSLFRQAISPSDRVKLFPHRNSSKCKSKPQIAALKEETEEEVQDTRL

SMILES	EC50 [µM]	Efficacy
NC(=O)c1cc(-c2ccccc2)nc(N2CCC(Cc3ccccc3)CC2)n1 [Compound 37]	> 5	++ (++ corresponds to Efficacy between 100 and 50)
CCNc1nc(C(N)=O)cc(-c2cccc(OC)c2)n1 [Compound 138]	> 5	++ (++ corresponds to Efficacy between 100 and 50)
COc1ccccc1-c1cc(C(N)=O)nc(N2CC=CCC2)n1 [Compound 135]	> 5	++ (++ corresponds to Efficacy between 100 and 50)
CCN(CC)c1nc(C(N)=O)cc(-c2cccc(CO)c2)n1 [Compound 158]	> 5	++ (++ corresponds to Efficacy between 100 and 50)
Cc1ccc(-c2cc(C(N)=O)nc(N3CCCCC3)n2)cc1C [Compound 40]	> 5	++ (++ corresponds to Efficacy between 100 and 50)
CCN(CC)c1nc(C(N)=O)cc(-c2cccc(NC(C)=O)c2)n1 [Compound 62]	> 5	++ (++ corresponds to Efficacy between 100 and 50)
COc1ccccc1-c1cc(C(N)=O)nc(N(CCO)CCO)n1 [Compound 90]	> 5	+ (+ corresponds to Efficacy less than 50)
CNC(=O)c1cc(-c2ccccc2)nc(NCc2ccco2)n1 [Compound 2]	> 5	++ (++ corresponds to Efficacy between 100 and 50)
COc1cccc(-c2cc(C(N)=O)nc(N3CCCCC3)n2)c1F [Compound 105]	> 5	+++ (+++ corresponds to Efficacy greater than 100)
CC1CN(c2nc(C(N)=O)cc(-c3ccccc3)n2)CC(C)O1 (stereo not drawn) [Compound 134]	> 5	++ (++ corresponds to Efficacy between 100 and 50)
CCCCCCN(C)c1nc(C(N)=O)cc(-c2ccccc2)n1 [Compound 201]	1 to 5	+++ (+++ corresponds to Efficacy greater than 100)
COc1cccc(-c2cc(C(N)=O)nc(NCC3CCCO3)n2)c1 (stereo not drawn) [Compound 80]	> 5	+ (+ corresponds to Efficacy less than 50)
C#CCNc1nc(C(N)=O)cc(-c2ccccc2)n1 [Compound 154]	> 5	+ (+ corresponds to Efficacy less than 50)
CCCN(CC1CC1)c1nc(C(N)=O)cc(-c2ccc(OC)cc2)n1 [Compound 197]	1 to 5	++ (++ corresponds to Efficacy between 100 and 50)
CC(=O)C1(c2ccccc2)CCN(c2nc(C(N)=O)cc(-c3ccccc3)n2)CC1 [Compound 45]	1 to 5	++ (++ corresponds to Efficacy between 100 and 50)
CCN(CCO)c1nc(C(N)=O)cc(-c2ccccc2OC)n1 [Compound 228]	> 5	++ (++ corresponds to Efficacy between 100 and 50)
CCNc1nc(C(N)=O)cc(-c2ccccc2)n1 [Compound 215]	> 5	++ (++ corresponds to Efficacy between 100 and 50)
COc1ccc(C2(CNc3nc(C(N)=O)cc(-c4ccccc4)n3)CCCC2)cc1OC [Compound 187]	1 to 5	++ (++ corresponds to Efficacy between 100 and 50)
Cc1ccccc1-c1cc(C(N)=O)nc(N2CCCCC2)n1 [Compound 114]	1 to 5	+++ (+++ corresponds to Efficacy greater than 100)
CN(C)C(=O)c1cc(-c2ccccc2)nc(N2CCCCCC2)n1 [Compound 1]	> 5	++ (++ corresponds to Efficacy between 100 and 50)
CNC(=O)c1cc(-c2ccccc2)nc(NCC2CC2)n1 [Compound 41]	> 5	+ (+ corresponds to Efficacy less than 50)
NC(=O)c1cc(-c2cccc(F)c2F)nc(N2CCCCC2)n1 [Compound 6]	1 to 5	++ (++ corresponds to Efficacy between 100 and 50)
C#CCNc1nc(C(N)=O)cc(-c2cccc(OC)c2)n1 [Compound 145]	> 5	++ (++ corresponds to Efficacy between 100 and 50)
CCc1ccc(-c2cc(C(N)=O)nc(N(CC)CC)n2)cc1 [Compound 116]	1 to 5	+++ (+++ corresponds to Efficacy greater than 100)

Continued, in another order:

EC50 [µM]	SMILES	Efficacy
1 to 5	CCN(CC)c1nc(C(N)=O)cc(-c2ccc(F)cc2)n1 [Compound 67]	+++ (+++ corresponds to Efficacy greater than 100)
1 to 5	CCN(CC)c1nc(C(N)=O)cc(-c2ccc(F)c(C)c2)n1 [Compound 131]	+++ (+++ corresponds to Efficacy greater than 100)
1 to 5	CCCCN(Cc1ccccc1)c1nc(C(N)=O)cc(-c2ccccc2)n1 [Compound 52]	++ (++ corresponds to Efficacy between 100 and 50)
1 to 5	CCN(CC)c1nc(C(N)=O)cc(-c2cc(Cl)cc(Cl)c2)n1 [Compound 226]	++ (++ corresponds to Efficacy between 100 and 50)
1 to 5	CCN(CC)c1nc(C(N)=O)cc(-c2ccc(OC)cc2OC)n1 [Compound 172]	+++ (+++ corresponds to Efficacy greater than 100)
1 to 5	NC(=O)c1cc(-c2ccccc2)nc(N2CCc3ccccc3C2)n1 [Compound 54]	++ (++ corresponds to Efficacy between 100 and 50)
1 to 5	COc1ccc(F)cc1-c1cc(C(N)=O)nc(N2CCCCC2)n1 [Compound 137]	++ (++ corresponds to Efficacy between 100 and 50)
< 1	CCCCN(CCCC)c1nc(C(N)=O)cc(-c2ccccc2)n1 [Compound 171]	++ (++ corresponds to Efficacy between 100 and 50)
1 to 5	Cc1cccc(-c2cc(C(N)=O)nc(N3CCCCC3)n2)c1C [Compound 11]	++ (++ corresponds to Efficacy between 100 and 50)
< 1	CCN(CC)c1nc(C(N)=O)cc(-c2ccc(Cl)cc2Cl)n1 [Compound 200]	++ (++ corresponds to Efficacy between 100 and 50)
< 1	CCN(CC)c1nc(C(N)=O)cc(-c2csc3ccccc23)n1 [Compound 214]	++ (++ corresponds to Efficacy between 100 and 50)
< 1	CCCCN(CCC)c1nc(C(N)=O)cc(-c2ccccc2)n1 [Compound 118]	++ (++ corresponds to Efficacy between 100 and 50)
< 1	CCN(CC)c1nc(C(N)=O)cc(-c2ccc(OC(F)(F)F)cc2)n1 [Compound 29]	++ (++ corresponds to Efficacy between 100 and 50)
1 to 5	CCOC(=O)C1CCN(c2nc(C(N)=O)cc(-c3ccccc3)n2)CC1 [Compound 99]	+ (+ corresponds to Efficacy less than 50)
1 to 5	CCN(CC)c1nc(C(N)=O)cc(-c2ccc(C)cc2)n1 [Compound 230]	+++ (+++ corresponds to Efficacy greater than 100)
< 1	CCN(CC)c1nc(C(N)=O)cc(-c2ccc(OC)c(OC)c2)n1 [Compound 82]	++ (++ corresponds to Efficacy between 100 and 50)
< 1	CCN(CC)c1nc(C(N)=O)cc(-c2cccc(Cl)c2Cl)n1 [Compound 210]	++ (++ corresponds to Efficacy between 100 and 50)
< 1	CCN(CC)c1nc(C(N)=O)cc(-c2cccc(C(F)(F)F)c2)n1 [Compound 75]	++ (++ corresponds to Efficacy between 100 and 50)
